Reference: PubChem BioAssay (NCI)
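Cultured in 96-well plates, cells were exposed to test compound for 48 hours across five concentrations. TGI: total growth inhibition.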

What was measured:
Experiment in all cases: NCI-60 cell line screen, 48 h
NCI/ADR-RES ovarian = test system: NCI/ADR-RES ovarian
UACC-62 melanoma = test system: UACC-62 melanoma
CAKI-1 renal = test system: CAKI-1 renal
DU-145 prostate = test system: DU-145 prostate
SF-539 CNS = test system: SF-539 CNS
MCF7 breast = test system: MCF7 breast
OVCAR-8 ovarian = test system: OVCAR-8 ovarian
HS 578T breast = test system: HS 578T breast
LOX IMVI melanoma = test system: LOX IMVI melanoma
ACHN renal = test system: ACHN renal
EKVX NSCLC = test system: EKVX NSCLC
OVCAR-5 ovarian = test system: OVCAR-5 ovarian
CCRF-CEM leukemia = test system: CCRF-CEM leukemia
SK-MEL-28 melanoma = test system: SK-MEL-28 melanoma
IGROV1 ovarian = test system: IGROV1 ovarian
KM12 colon = test system: KM12 colon
HCT-15 colon = test system: HCT-15 colon
COLO 205 colon = test system: COLO 205 colon
NCI-H226 lung = test system: NCI-H226 lung
MDA-MB-435 = test system: MDA-MB-435

Structure (SMILES) | TGI (NCI/ADR-RES ovarian) [µM] | TGI (UACC-62 melanoma) [µM] | TGI (CAKI-1 renal) [µM] | TGI (DU-145 prostate) [µM] | TGI (SF-539 CNS) [µM] | TGI (MCF7 breast) [µM] | TGI (OVCAR-8 ovarian) [µM] | TGI (HS 578T breast) [µM] | TGI (LOX IMVI melanoma) [µM] | TGI (ACHN renal) [µM] | TGI (EKVX NSCLC) [µM] | TGI (OVCAR-5 ovarian) [µM] | TGI (CCRF-CEM leukemia) [µM] | TGI (SK-MEL-28 melanoma) [µM] | TGI (IGROV1 ovarian) [µM] | TGI (KM12 colon) [µM] | TGI (HCT-15 colon) [µM] | TGI (COLO 205 colon) [µM] | TGI (NCI-H226 lung) [µM] | TGI (MDA-MB-435) [µM]
COc1cc([C@@H]2c3cc4c(cc3[C@@H](Nc3ccc(Cl)cc3C(=O)c3ccccc3)[C@H]3COC(=O)[C@H]23)OCO4)cc(OC)c1OC | > 100 | > 100 | > 100 | > 100 | 0.669 | > 100 | > 100 | 0.926 | > 100 | > 100 | > 100 | > 100 | > 100 | 78.4 | 7.6 |  |  |  |  | 
CO/C(=N\N=C\c1ccc(Cl)c(Cl)c1)c1ccncc1 | > 10 |  | > 10 |  | > 10 | > 10 | > 10 |  | > 10 | > 10 |  | > 10 | > 10 | > 10 | > 10 | > 10 | > 10 | > 10 | > 10 | 
CC(=O)[C@H]1[C@H](O)C[C@@]2(C)[C@@H]3CCc4cc(O)c(OC5OC(CO)C(O)C(O)C5O)cc4C3(C)C(=O)C[C@]12C (stereo not given in full) | > 100 | > 100 | > 100 | > 100 | > 100 | > 100 | > 100 |  | > 100 | > 100 | > 100 | > 100 | > 100 | > 100 | > 100 | > 100 | > 100 | > 100 | > 100 | > 100
C[C@@H]1CC[C@H]2[C@H](C)C(OC3O[C@@H]4O[C@@]5(C)CC[C@H]6[C@H](C)CC[C@@H]([C@@H]3C)[C@@]46O5)O[C@@H]3O[C@@]4(C)CC[C@@H]1[C@]32O4 (stereo not given in full) |  | > 100 | > 100 | > 100 | > 100 | > 100 | > 100 | > 100 | > 100 | > 100 | > 100 | > 100 | > 100 | > 100 |  | > 100 | > 100 | > 100 | > 100 | > 100
COc1ccc(C2Cc3cc(OC)c(OC)c(OC)c3C2)cc1 (stereo not given) |  | > 100 | > 100 |  | > 100 |  | > 100 |  | > 100 | > 100 | > 100 | > 100 | > 100 | > 100 | > 100 | > 100 | > 100 | > 100 | > 100 | 
Cc1cc(O)c(/C=N/C(=S)Nc2ccc(S(N)(=O)=O)cc2)c(=O)o1 | > 100 | > 100 | > 100 | > 100 | > 100 | > 100 | > 100 |  | > 100 | > 100 | > 100 | > 100 |  | > 100 | > 100 | > 100 | > 100 | > 100 | > 100 | > 100
COc1cc([C@@H]2c3cc4c(cc3[C@@H](NCc3cccc(C#N)c3)C3COC(=O)[C@@H]32)OCO4)cc(OC)c1O (stereo not given in full) |  | 2.93 | 20.8 |  | 1.94 |  | 4.56 |  | 8.36 | 1.58 | 6.58 | 14.6 | > 100 | 46.1 | 15.2 | 4.66 | 3.17 | 21.4 | 2.4 | 
